Where a chain is given by its changes, count along the chain named. Where two headings read alike, the source gives them in different places.
Columns and labels:
Format in all cases: cell-based
[1] = target: T1, wild-type Androgen Receptor (AR-wt) (Homo sapiens, UniProt P10275); experiment: LNCaP-AR-wt ANT reporter assay (ARE firefly luciferase, antagonist mode); settings: for IC50: antagonist mode, 400 pM R-1881 challenge, −Log10(IC50 [Molar]), read-out: LNCaP-AR-wt ANT pIC50 (converted); for Emax: read-out: LNCaP-AR-wt ANT MAX % Inh
T1 construct: expressed in transfected cells; host or cells: LNCaP (LNCaP AR (cs))
T1 sequence (P10275 1-920): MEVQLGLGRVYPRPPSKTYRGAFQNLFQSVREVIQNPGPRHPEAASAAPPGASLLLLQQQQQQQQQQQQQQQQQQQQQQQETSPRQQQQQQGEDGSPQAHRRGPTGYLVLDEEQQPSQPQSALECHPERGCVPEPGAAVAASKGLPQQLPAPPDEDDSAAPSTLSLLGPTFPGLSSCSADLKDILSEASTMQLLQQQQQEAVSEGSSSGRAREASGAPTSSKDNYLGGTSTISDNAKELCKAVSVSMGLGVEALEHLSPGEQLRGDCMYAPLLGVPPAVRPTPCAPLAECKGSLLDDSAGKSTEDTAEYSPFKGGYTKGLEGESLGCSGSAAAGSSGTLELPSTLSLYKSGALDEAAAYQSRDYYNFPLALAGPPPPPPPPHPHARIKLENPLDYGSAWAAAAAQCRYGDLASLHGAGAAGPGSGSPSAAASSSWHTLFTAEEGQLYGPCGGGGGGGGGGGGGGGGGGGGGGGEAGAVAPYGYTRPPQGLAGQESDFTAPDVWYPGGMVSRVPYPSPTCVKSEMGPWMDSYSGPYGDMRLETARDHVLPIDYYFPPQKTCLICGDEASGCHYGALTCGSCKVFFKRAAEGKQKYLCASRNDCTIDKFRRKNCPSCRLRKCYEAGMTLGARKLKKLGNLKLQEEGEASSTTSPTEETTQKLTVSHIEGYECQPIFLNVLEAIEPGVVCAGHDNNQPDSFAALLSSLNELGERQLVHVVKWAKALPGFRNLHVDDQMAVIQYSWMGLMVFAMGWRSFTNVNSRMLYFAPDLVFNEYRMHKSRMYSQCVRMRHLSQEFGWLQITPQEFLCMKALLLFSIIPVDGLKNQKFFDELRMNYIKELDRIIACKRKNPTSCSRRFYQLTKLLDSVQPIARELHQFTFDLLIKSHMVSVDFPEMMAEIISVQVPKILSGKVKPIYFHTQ
How it was run: (§1)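 Read-out is luciferase luminescence taken 1 h after Steady-Glo addition, following 20-24 h compound exposure at 37 °C in LNCaP pools stably carrying wild-type or F876L AR. Cells were grown in charcoal-stripped serum. Antagonist wells received agonist at 400 pM (WT) or 600 pM (F876L).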

[2] = target: T1, wild-type Androgen Receptor (AR-wt); experiment: LNCaP-AR-wt AG reporter assay (ARE firefly luciferase, agonist mode); settings: for Emax: read-out: LNCaP-AR-wt AG MAX % Stim
How it was run: (§2)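 LNCaP cells stably expressing wild-type or F876L AR (puromycin-selected pooled populations) were cultured in charcoal-stripped serum medium. In antagonist mode, agonist challenge was 400 pM for wild-type and 600 pM for F876L.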

[3] = target: T2, F876L mutant Androgen Receptor (AR-F876L) (Homo sapiens, UniProt P10275, F877L); experiment: LNCaP-AR-F876L ANT reporter assay (ARE firefly luciferase, antagonist mode); settings: for Emax: read-out: LNCaP-AR-F876L ANT MAX % Inh; for IC50: read-out: LNCaP-AR-F876L ANT pIC50 (converted)
T2 construct: expressed in transfected cells; host or cells: LNCaP (LNCaP F876L)
T2 sequence (P10275 1-920 F877L): T1 sequence (P10275 1-920) with F877L
How it was run: as §1

[4] = target: T2, F876L mutant Androgen Receptor (AR-F876L); experiment: LNCaP-AR-F876L AG reporter assay (ARE firefly luciferase, agonist mode); settings: for Emax: read-out: LNCaP-AR-F876L AG MAX % Stim
How it was run: as §2

[5] = maximum % inhibition of R1881 control response over tested concentration range
[6] = agonist mode, −Log10(EC50 [Molar]), read-out: LNCaP-AR-wt AG pEC50 (converted)
[7] = maximum % stimulation (agonist response) over tested concentration range
[8] = agonist mode, −Log10(EC50 [Molar]), read-out: LNCaP-AR-F876L AG pEC50 (converted)

| Structure (SMILES) | IC50 [1] [nM] | Emax [1] [%] | EC50 [2] [nM] | Emax [2] [%] | Emax [3] [%] | IC50 [3] [nM] | EC50 [4] [nM] | Emax [4] [%] | Emax [1, 5] [%] | EC50 [2, 6] [nM] | Emax [2, 7] [%] | Emax [3, 5] [%] | EC50 [4, 8] [nM] | Emax [4, 7] [%] |
| --- | --- | --- | --- | --- | --- | --- | --- | --- | --- | --- | --- | --- | --- | --- |
| N#Cc1ncc(N2C(=O)C3(CCC3)N(c3ccc(Oc4ccncn4)cc3)C2=S)cc1C(F)(F)F [Cpd 71, 5-[5-oxo-8-(4-pyrimidin-4-yloxyphenyl)-7-thioxo-6,8-diazaspiro[3.4]octan-6-yl]-3-(trifluoromethyl)pyridine-2-carbonitrile] | 214 | 98.8 | > 15100 | 0.5 | 97.5 | 251 | > 15100 | 0.9 | – | – | – | – | – | – |
| Cc1cc(N2C(=O)C3(CCC3)N(c3ccc(C(=O)Nc4ccccc4F)c(F)c3)C2=S)cnc1C#N [Cpd 11, 4-[6-(6-cyano-5-methyl-3-pyridyl)-5-oxo-7-thioxo-6,8-diazaspiro[3.4]octan-8-yl]-2-fluoro-N-(2-fluorophenyl)benzamide] | 676 | – | – | – | – | 295 | – | – | 101 | > 15100 | -0.1 | 99.9 | > 15100 | -0.1 |
| N#Cc1ncc(N2C(=O)C3(CCC3)N(c3cccc(F)c3)C2=S)cc1C(F)(F)F [Cpd 90, 5-[8-(3-fluorophenyl)-5-oxo-7-thioxo-6,8-diazaspiro[3.4]octan-6-yl]-3-(trifluoromethyl)pyridine-2-carbonitrile] | 513 | – | – | – | – | 631 | – | – | 100 | > 15100 | 0.5 | 98.6 | > 15100 | 1.4 |
| CNC(=O)c1ccc(N2C(=S)N(c3cnc(C#N)c(C)c3)C(=O)C23CCC3)cc1OC [Cpd 117, 4-[6-(6-cyano-5-methyl-3-pyridyl)-5-oxo-7-thioxo-6,8-diazaspiro[3.4]octan-8-yl]-2-methoxy-N-methyl-benzamide] | 1260 | – | – | – | – | 288 | – | – | 100 | > 15100 | 0.7 | 96.4 | > 15100 | 3.5 |
| N#Cc1ncc(N2C(=O)C3(CCC3)N(c3ccc(C(=O)N4CCCC4)c(F)c3)C2=S)cc1C(F)(F)F [Cpd 52, 5-[8-[3-fluoro-4-(pyrrolidine-1-carbonyl)phenyl]-5-oxo-7-thioxo-6,8-diazaspiro[3.4]octan-6-yl]-3-(trifluoromethyl)pyridine-2-carbonitrile] | 741 | – | – | – | – | 468 | – | – | 101 | > 15100 | 0.4 | 102 | > 15100 | 0.4 |
| N#Cc1ncc(N2C(=O)C3(CCC3)N(c3ccc(F)cc3)C2=S)cc1C(F)(F)F [Cpd 102, 5-[8-(4-fluorophenyl)-5-oxo-7-thioxo-6,8-diazaspiro[3.4]octan-6-yl]-3-(trifluoromethyl)pyridine-2-carbonitrile] | 646 | – | – | – | – | 501 | – | – | 101 | > 15100 | 0.9 | 99.6 | > 15100 | 1.9 |
| Cc1cncc(-c2ccc(N3C(=S)N(c4cnc(C#N)c(C)c4)C(=O)C34CCC4)cc2)c1 [Cpd 114, 3-methyl-5-[8-[4-(5-methyl-3-pyridyl)phenyl]-5-oxo-7-thioxo-6,8-diazaspiro[3.4]octan-6-yl]pyridine-2-carbonitrile] | 240 | 98.7 | > 15100 | 0.7 | 97.8 | 355 | > 15100 | 3.3 | – | – | – | – | – | – |
| N#Cc1ncc(N2C(=O)C3(CCC3)N(c3ccc(OCCN4CCCCC4)cc3F)C2=S)cc1C(F)(F)F [Cpd 91, 5-[8-[2-fluoro-4-[2-(1-piperidyl)ethoxy]phenyl]-5-oxo-7-thioxo-6,8-diazaspiro[3.4]octan-6-yl]-3-(trifluoromethyl)pyridine-2-carbonitrile] | 537 | – | – | – | – | 302 | – | – | 98.5 | > 15100 | 1.1 | 98.6 | > 15100 | 1.4 |
| CC(C)(O)CNC(=O)c1ccc(N2C(=S)N(c3cnc(C#N)c(C(F)(F)F)c3)C(=O)C23CCC3)cc1F [Cpd 17, 4-[6-[6-cyano-5-(trifluoromethyl)-3-pyridyl]-5-oxo-7-thioxo-6,8-diazaspiro[3.4]octan-8-yl]-2-fluoro-N-(2-hydroxy-2-methyl-propyl)benzamide] | 2690 | 95.5 | > 15100 | -0.1 | 97.2 | 1100 | > 15100 | 0.1 | – | – | – | – | – | – |
| CNC(=O)c1ccc(N2C(=S)N(c3cnc(C#N)c(C)c3)C(=O)C23CCC3)cc1F [Cpd 16, 4-[6-(6-cyano-5-methyl-3-pyridyl)-5-oxo-7-thioxo-6,8-diazaspiro[3.4]octan-8-yl]-2-fluoro-N-methyl-benzamide] | 631 | – | – | – | – | 269 | – | – | 99.2 | > 15100 | 0.3 | 98.7 | > 15100 | 0 |
| Cc1cc(N2C(=O)C3(CCC3)N(c3ccc(OCCc4ccccn4)c(F)c3)C2=S)cnc1C#N [Cpd 32, 5-[8-[3-fluoro-4-[2-(2-pyridyl)ethoxy]phenyl]-5-oxo-7-thioxo-6,8-diazaspiro[3.4]octan-6-yl]-3-methyl-pyridine-2-carbonitrile] | 490 | – | – | – | – | 282 | – | – | 102 | > 15100 | 0.7 | 101 | > 15100 | 0.1 |
| Cc1ccc(N2C(=S)N(c3cnc(C#N)c(C)c3)C(=O)C23CCC3)cc1 [Cpd 29, 3-methyl-5-[5-oxo-8-(p-tolyl)-7-thioxo-6,8-diazaspiro[3.4]octan-6-yl]pyridine-2-carbonitrile] | 389 | – | – | 0.7 | – | 100 | – | 0.3 | 102 | > 15100 | – | 101 | > 15100 | – |

Reference: patent US20180008587A1, “THIOHYDANTOIN ANDROGEN RECEPTOR ANTAGONISTS FOR THE TREATMENT OF CANCER” (Jaressen Pharmaceutica NV, priority 2016, published 2018)
